Assay results: patent publication US9730447B2, “Fungicidal amides” (E I DU PONT DE NEMOURS AND COMPANY, priority 2013, dated 2017)

Experiments:
Botrytis cinerea = assay: Test A: preventive spray on tomato seedlings, Botrytis cinerea (gray mold), visual disease rating; assay type: in vivo; details: 96 h, 100 = 100% disease control, 0 = no control relative to controls, unmarked values
Method in brief: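 Tomato seedlings sprayed to run-off with 40 ppm or 10 ppm suspensions (160 or 40 g ai/ha) in acetone/water with 250 ppm surfactant. Inoculated with B. cinerea spores next day, held saturated at 20 °C for 48 h, then 27 °C for 2 days. Visual rating, 0–100% disease control relative to controls.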

Row | SMILES | pest or weed control at 40 µg/mL, 160 g/ha (Botrytis cinerea) [%] | melting point [°C]
1 | Cn1cc(C(=O)Nc2ccccc2-c2ccc(-n3ccc(C(F)(F)F)n3)nn2)c(C(F)F)n1 [Compound 54, 3-(difluoromethyl)-1-methyl-N-[2-[6-[3-(trifluoromethyl)-1H-pyrazol-1-yl]-3-pyridazinyl]phenyl]-1H-pyrazole-4-carboxamide] | 0 | 248 to 250
2 | O=C(Nc1ccccc1-c1cnc(-n2ccc(C(F)(F)F)n2)nc1)c1ncccc1C(F)(F)F [Compound 56, 3-(trifluoromethyl)-N-[2-[2-[3-(trifluoromethyl)-1H-pyrazol-1-yl]-5-pyrimidinyl]phenyl]-2-pyridinecarboxamide] | 16 | 178 to 180
3 | Cn1cc(C(=O)Nc2ccccc2-c2cnc(-n3ccc(C(F)(F)F)n3)nc2)c(C(F)F)n1 [Compound 58, 3-(difluoromethyl)-1-methyl-N-[2-[2-[3-(trifluoromethyl)-1H-pyrazol-1-yl]-5-pyrimidinyl]phenyl]-1H-pyrazole-4-carboxamide] | 0 | 167 to 169
